Source: the NIST ThermoML archive (doi:10.1016/j.jct.2015.11.013)
Several values for one entry are separate records, joined by “and”; a condition that tells them apart may be missing. Identical values can stand only once.

Experiment: cn = amount concentration of the nth substance listed, in mol/dm3
Conditions: 298.15 K, 101.3 kPa, Liquid, Taylor dispersion method

Row | binary diffusion coefficient (c1 = 0.00075) [m2/s] | binary diffusion coefficient (c1 = 0.001) [m2/s] | binary diffusion coefficient (c1 = 0.0015) [m2/s] | binary diffusion coefficient (c1 = 0.002) [m2/s] | binary diffusion coefficient (c1 = 0.0025) | binary diffusion coefficient (c1 = 0.025) [m2/s] | binary diffusion coefficient (c1 = 0.05) [m2/s] | binary diffusion coefficient (c1 = 0.075) [m2/s] | binary diffusion coefficient (c1 = 0.085) [m2/s] | binary diffusion coefficient (c1 = 0.1) [m2/s] | Compound
1 | 1.19e-09 | 1.08e-09 | 9.5e-10 | 8.72e-10 | 8.49e-10 m2/s and 8.5e-10 m2/s | – | – | – | – | – | CCCCCCCC(=O)O [octanoic acid] + O
2 | – | – | – | – | – | 8.56e-10 | 8.54e-10 | 8.52e-10 | 8.51e-10 | 8.5e-10 | CCCCCCCC(=O)[O-].[Na+] [sodium octanoate] + O
3 | – | – | – | – | 3.53e-10 m2/s | – | – | – | – | – | OC[C@H]1O[C@@H]2O[C@H]3[C@H](O)[C@@H](O)[C@@H](O[C@H]4[C@H](O)[C@@H](O)[C@@H](O[C@H]5[C@H](O)[C@@H](O)[C@@H](O[C@H]6[C@H](O)[C@@H](O)[C@@H](O[C@H]7[C@H](O)[C@@H](O)[C@@H](O[C@H]1[C@H](O)[C@H]2O)O[C@@H]7CO)O[C@@H]6CO)O[C@@H]5CO)O[C@@H]4CO)O[C@@H]3CO [α-cyclodextrin] + O
